This assay deals with NAE (heterodimer of APPBP1 and UBA3) (Homo sapiens (Human), UniProt Q8TBC4). Description: Nedd8 conjugation inhibitory activity (AlphaScreen assay). The assay is classed as biochemical. Particulars: purified NAE, GST-UBC12, Biotin-Nedd8, ATP. For orientation: In Alpha technology, singlet oxygen from a donor bead excites a nearby acceptor bead.
Chain of NAE (heterodimer of APPBP1 and UBA3) (Q8TBC4 whole entry): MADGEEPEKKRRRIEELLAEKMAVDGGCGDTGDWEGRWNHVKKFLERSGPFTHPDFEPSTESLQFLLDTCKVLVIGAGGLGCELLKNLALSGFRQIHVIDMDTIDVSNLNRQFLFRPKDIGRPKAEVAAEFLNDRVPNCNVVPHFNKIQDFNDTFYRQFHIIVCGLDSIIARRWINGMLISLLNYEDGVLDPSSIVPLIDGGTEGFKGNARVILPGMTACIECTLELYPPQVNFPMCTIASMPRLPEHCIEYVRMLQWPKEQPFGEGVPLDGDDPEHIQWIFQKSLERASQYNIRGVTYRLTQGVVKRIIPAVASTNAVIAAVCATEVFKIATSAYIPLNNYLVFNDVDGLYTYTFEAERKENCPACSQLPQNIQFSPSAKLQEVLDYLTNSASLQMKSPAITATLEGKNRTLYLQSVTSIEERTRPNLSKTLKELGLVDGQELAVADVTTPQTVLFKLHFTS
Chain of NAE (heterodimer of APPBP1 and UBA3) (Q13564 whole entry partner): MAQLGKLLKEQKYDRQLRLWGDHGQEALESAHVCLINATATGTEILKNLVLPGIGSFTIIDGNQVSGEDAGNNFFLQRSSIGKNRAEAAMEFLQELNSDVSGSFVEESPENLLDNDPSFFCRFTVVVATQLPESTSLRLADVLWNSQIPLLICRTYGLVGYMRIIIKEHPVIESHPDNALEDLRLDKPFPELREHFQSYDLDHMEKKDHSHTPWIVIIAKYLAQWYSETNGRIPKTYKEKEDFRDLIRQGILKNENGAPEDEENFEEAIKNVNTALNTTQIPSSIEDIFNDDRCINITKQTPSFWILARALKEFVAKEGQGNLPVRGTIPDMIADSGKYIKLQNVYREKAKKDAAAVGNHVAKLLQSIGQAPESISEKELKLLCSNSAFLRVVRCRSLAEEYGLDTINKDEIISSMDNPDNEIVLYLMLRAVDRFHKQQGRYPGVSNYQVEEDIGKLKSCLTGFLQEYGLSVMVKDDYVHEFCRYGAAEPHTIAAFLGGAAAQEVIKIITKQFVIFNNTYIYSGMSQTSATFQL
As to `COc1ccc2cccnc2c1C#Cc1cn([C@@H]2O[C@H](CNS(N)(=O)=O)[C@@H](O)[C@H]2O)c2ncnc(N)c12` [Example 63, 8-[2-[4-Amino-7-[(2R,3R,4S,5R)-3,4-dihydroxy-5-[(sulfamoylamino)methyl]tetrahydrofuran-2-yl]pyrrolo[2,3-d]pyrimidin-5-yl]ethynyl]-7-methoxyquinoline], the half-maximal inhibitory concentration (IC50) – broadly, the concentration that inhibits the measured activity by half – came to 0.011 µM.

Take `CCOc1cc(F)cc(F)c1C#Cc1cn([C@@H]2O[C@H](CNS(N)(=O)=O)[C@@H](O)[C@H]2O)c2ncnc(N)c12` [Example 35, 4-Amino-7-[(2R,3R,4S,5R)-3,4-dihydroxy-5-[(sulfamoylamino)methyl]tetrahydrofuran-2-yl]-5-[2-(2-ethoxy-4,6-difluoro-phenyl)ethynyl]pyrrolo[2,3-d]pyrimidine]: it took 0.0041 µM to reach half-maximal inhibition (IC50).

Take `NC(=O)c1cccc(F)c1C#Cc1cn([C@@H]2O[C@H](CNS(N)(=O)=O)[C@@H](O)[C@H]2O)c2ncnc(N)c12` [Example 79, 2-[2-[4-Amino-7-[(2R,3R,4S,5R)-3,4-dihydroxy-5-[(sulfamoylamino)methyl]tetrahydrofuran-2-yl]pyrrolo[2,3-d]pyrimidin-5-yl]ethynyl]-3-fluorobenzamide]: inhibition was half-maximal at 0.0032 µM (IC50).

The compound `COc1cncc(F)c1C#Cc1cn([C@@H]2O[C@H](CNS(N)(=O)=O)[C@@H](O)[C@H]2O)c2ncnc(N)c12` [Example 71, 4-Amino-7-[(2R,3R,4S,5R)-3,4-dihydroxy-5-[(sulfamoylamino)methyl]tetrahydrofuran-2-yl]-5-[2-(3-fluoro-5-methoxy-4-pyridyl)ethynyl]pyrrolo[2,3-d]pyrimidine] returned an IC50 of 0.014 µM.

As for `COc1cnc(OC)c(F)c1C#Cc1cn([C@@H]2O[C@H](CNS(N)(=O)=O)[C@@H](O)[C@H]2O)c2ncnc(N)c12` [Example 81, 4-Amino-7-[(2R,3R,4S,5R)-3,4-dihydroxy-5-[(sulfamoylamino)methyl]tetrahydrofuran-2-yl]-5-[2-(3-fluoro-2,5-dimethoxy-4-pyridyl)ethynyl]pyrrolo[2,3-d]pyrimidine], the IC50 worked out at 0.0056 µM.

Take `Nc1ncnc2c1c(C#Cc1c(F)cccc1OCC1CC1)cn2[C@@H]1O[C@H](CNS(N)(=O)=O)[C@@H](O)[C@H]1O` [Example 86, 4-Amino-5-[2-[2-(cyclopropylmethoxy)-6-fluoro-phenyl]ethynyl]-7-[(2R,3R,4S,5R)-3,4-dihydroxy-5-[(sulfamoylamino)methyl]tetrahydrofuran-2-yl]pyrrolo[2,3-d]pyrimidine]: half-maximal inhibition (IC50) was put at 0.0054 µM.

With `COc1cccc(OC)c1C#Cc1cn([C@@H]2O[C@H](CNS(N)(=O)=O)[C@@H](O)[C@H]2O)c2ncnc(N)c12` [Example 16, 4-Amino-7-[(2R,3R,4S,5R)-3,4-dihydroxy-5-[(sulfamoylamino)methyl]tetrahydrofuran-2-yl]-5-[2-(2,6-dimethoxyphenyl)ethynyl]pyrrolo[2,3-d]pyrimidine], half-maximal inhibition (IC50) required 0.0096 µM.

`CSc1cccc(F)c1C#Cc1cn([C@@H]2C[C@H](CNS(N)(=O)=O)[C@@H](O)[C@H]2O)c2ncnc(N)c12` [Example 98, 4-Amino-7-[(1R,2S,3R,4R)-2,3-dihydroxy-4-[(sulfamoylamino)methyl]cyclopentyl]-5-[2-(2-fluoro-6-methylsulfanyl-phenyl)ethynyl]pyrrolo[2,3-d]pyrimidine] came in with an IC50 of 0.0083 µM.

As for `Nc1ncnc2c1c(C#Cc1cccc3cccnc13)cn2[C@@H]1O[C@H](CNS(N)(=O)=O)[C@@H](O)[C@H]1O` [Example 17, 8-[2-[4-Amino-7-[(2R,3R,4S,5R)-3,4-dihydroxy-5-[(sulfamoylamino)methyl]tetrahydrofuran-2-yl]pyrrolo[2,3-d]pyrimidin-5-yl]ethynyl]quinoline], the IC50 is 0.0054 µM.

`CCNc1cc(F)c(C#Cc2cn([C@@H]3O[C@H](CNS(N)(=O)=O)[C@@H](O)[C@H]3O)c3ncnc(N)c23)c(F)c1` [Example 26, 4-Amino-7-[(2R,3R,4S,5R)-3,4-dihydroxy-5-[(sulfamoylamino)methyl]tetrahydrofuran-2-yl]-5-[2-[4-(ethylamino)-2,6-difluoro-phenyl]ethynyl]pyrrolo[2,3-d]pyrimidine] displayed an IC50 of 0.012 µM.

With `CCOc1cc(N2CCCCC2)cc(F)c1C#Cc1cn([C@@H]2C[C@H](CNS(N)(=O)=O)[C@@H](O)[C@H]2O)c2ncnc(N)c12` [Example 106, 4-Amino-7-[(1R,2S,3R,4R)-2,3-dihydroxy-4-[(sulfamoylamino)methyl]cyclopentyl]-5-[2-[2-ethoxy-6-fluoro-4-(1-piperidyl)phenyl]ethynyl]pyrrolo[2,3-d]pyrimidine], the IC50 was 0.028 µM.

`Nc1ncnc2c1c(C#Cc1c(F)cc(N3CCOCC3)cc1F)cn2[C@@H]1C[C@H](CNS(N)(=O)=O)[C@@H](O)[C@H]1O` [Example 101, 4-[4-[2-[4-amino-7-[(1R,2S,3R,4R)-2,3-dihydroxy-4-[(sulfamoylamino)methyl]cyclopentyl]pyrrolo[2,3-d]pyrimidin-5-yl]ethynyl]-3,5-difluoro-phenyl]morpholine] returned an IC50 of 0.0076 µM.

The compound `CCOc1cc(N2C3CCC2COC3)cc(F)c1C#Cc1cn([C@@H]2C[C@H](CNS(N)(=O)=O)[C@@H](O)[C@H]2O)c2ncnc(N)c12` [Example 110, 8-[4-[2-[4-Amino-7-[(1R,2S,3R,4R)-2,3-dihydroxy-4-[(sulfamoylamino)methyl]cyclopentyl]pyrrolo[2,3-d]pyrimidin-5-yl]ethynyl]-3-ethoxy-5-fluoro-phenyl]-3-oxa-8-azabicyclo[3,2,1]octane] displayed an IC50 of 0.013 µM.

The compound `Cc1ccc(Cn2cc(-c3cn([C@H]4C[C@H](O)[C@@H](COS(N)(=O)=O)O4)c4ncnc(N)c34)cn2)cc1C` [Example 137, [(2R,3S,5R)-5-[4-Amino-5-[1-[(3,4-dimethylphenyl)methyl]pyrazol-4-yl]pyrrolo[2,3-d]pyrimidin-7-yl]-3-hydroxy-tetrahydrofuran-2-yl]methyl sulfamate] yielded an IC50 of 0.019 µM.

For `Nc1ncnc2c1c(C#Cc1c(F)cc(N3CC[C@@H](O)C3)cc1F)cn2[C@@H]1O[C@H](CNS(N)(=O)=O)[C@@H](O)[C@H]1O` [Example 30, 4-Amino-5-[2-[2,6-difluoro-4-[(3R)-3-hydroxypyrrolidin-1-yl]phenyl]ethynyl]-7-[(2R,3R,4S,5R)-3,4-dihydroxy-5-[(sulfamoylamino)methyl]tetrahydrofuran-2-yl]pyrrolo[2,3-d]pyrimidine], it took 0.027 µM to reach half-maximal inhibition (IC50).

With `CN1CCN(c2cc(F)c(C#Cc3cn([C@@H]4C[C@H](CNS(N)(=O)=O)[C@@H](O)[C@H]4O)c4ncnc(N)c34)c(F)c2)CC1` [Example 103, 4-Amino-5-[2-[2,6-difluoro-4-(4-methylpiperazin-1-yl)phenyl]ethynyl]-7-[(1R,2S,3R,4R)-2,3-dihydroxy-4-[(sulfamoylamino)methyl]cyclopentyl]pyrrolo[2,3-d]pyrimidine], inhibition was half-maximal at 0.013 µM (IC50).

For the compound `N#Cc1cc(F)c(C#Cc2cn([C@@H]3O[C@H](CNS(N)(=O)=O)[C@@H](O)[C@H]3O)c3ncnc(N)c23)c(F)c1` [Example 57, 4-Amino-5-[2-(4-cyano-2,6-difluoro-phenyl)ethynyl]-7-[(2R,3R,4S,5R)-3,4-dihydroxy-5-[(sulfamoylamino)methyl]tetrahydrofuran-2-yl]pyrrolo[2,3-d]pyrimidine], half-maximal inhibition (IC50) was put at 0.0058 µM.

On to `CCOc1cc(N2CCOCC2)cc(F)c1C#Cc1cn([C@@H]2C[C@H](CNS(N)(=O)=O)[C@@H](O)[C@H]2O)c2ncnc(N)c12` [Example 112, 4-[4-[2-[4-Amino-7-[(1R,2S,3R,4R)-2,3-dihydroxy-4-[(sulfamoylamino)methyl]cyclopentyl]pyrrolo[2,3-d]pyrimidin-5-yl]ethynyl]-3-ethoxy-5-fluoro-phenyl]morpholine], for which the half-maximal inhibitory concentration (IC50) was 0.015 µM.

Compound `CCSc1cccc(F)c1C#Cc1cn([C@@H]2C[C@H](CNS(N)(=O)=O)[C@@H](O)[C@H]2O)c2ncnc(N)c12` [Example 99, 4-Amino-7-[(1R,2S,3R,4R)-2,3-dihydroxy-4-[(sulfamoylamino)methyl]cyclopentyl]-5-[2-(2-ethylsulfanyl-6-fluoro-phenyl)ethynyl]pyrrolo[2,3-d]pyrimidine] gave an IC50 of 0.019 µM.

Regarding `COc1cccc(F)c1C#Cc1cn([C@@H]2C[C@H](CNS(N)(=O)=O)[C@@H](O)[C@H]2O)c2ncnc(N)c12` [Example 95, 4-Amino-7-[(1R,2S,3R,4R)-2,3-dihydroxy-4-[(sulfamoylamino)methyl]cyclopentyl]-5-[2-(2-fluoro-6-methoxy-phenyl)ethynyl]pyrrolo[2,3-d]pyrimidine], the midpoint of inhibition, the IC50, lay at 0.013 µM.

`Nc1ncnc2c1c(C#Cc1ccccc1)cn2[C@H]1C[C@H](O)[C@@H](COS(N)(=O)=O)O1` [Example 134, [(2R,3S,5R)-5-[4-Amino-5-(2-phenylethynyl)pyrrolo[2,3-d]pyrimidin-7-yl]-3-hydroxy-tetrahydrofuran-2-yl]methyl sulfamate] gave an IC50 of 0.018 µM.

The compound `COc1cccc(OC)c1C#Cc1cn([C@@H]2C[C@H](CNS(N)(=O)=O)[C@@H](O)[C@H]2O)c2ncnc(N)c12` [Example 94, 4-Amino-7-[(1R,2S,3R,4R)-2,3-dihydroxy-4-[(sulfamoylamino)methyl]cyclopentyl]-5-[2-(2,6-dimethoxyphenyl)ethynyl]pyrrolo[2,3-d]pyrimidine] had an IC50 of 0.021 µM.

The compound `COc1cccc(F)c1C#Cc1cn([C@@H]2O[C@H](CNS(N)(=O)=O)[C@@H](O)[C@H]2O)c2ncnc(N)c12` [Example 51, 4-Amino-7-[(2R,3R,4S,5R)-3,4-dihydroxy-5-[(sulfamoylamino)methyl]tetrahydrofuran-2-yl]-5-[2-(2-fluoro-6-methoxy-phenyl)ethynyl]pyrrolo[2,3-d]pyrimidine] displayed an IC50 of 0.0035 µM.

`Nc1ncnc2c1c(C#Cc1c(F)cc(N3CCC3)cc1F)cn2[C@@H]1C[C@H](CNS(N)(=O)=O)[C@@H](O)[C@H]1O` [Example 118, 4-Amino-5-[2-[4-(azetidin-1-yl)-2,6-difluoro-phenyl]ethynyl]-7-[(1R,2S,3R,4R)-2,3-dihydroxy-4-[(sulfamoylamino)methyl]cyclopentyl]pyrrolo[2,3-d]pyrimidine]: the IC50 is 0.0068 µM.

The values above are taken from US9963456B2, “Pyrrolopyrimidine compound or salt thereof and compositions containing the pyrrolopyrimidine compound or salt thereof” (TAIHO PHARMACEUTICAL CO., LTD., priority 2014, dated 2018).
